Literature values in paper PMC10609854 (Pharmaceuticals, 2023).

Conditions: up to 10 μM; cited from earlier work

In the case of `O=C(O)C(=O)O.c1ccc(-c2ccc(OCCCCCN3CCCCCC3)cc2)cc1` [Compound E153, 1-(5-(4-Phenylphenoxy)pentyl)azepane hydrogen oxalate], the “mutagenicity in the AMES test” value is given as “non-mutagenic”.
